What all share (assay type): cell-based
The nature of series [1]: Cytotoxicity in PHH natural infection assay (Cell Counting Kit-8). To be noted: human; HBV-infected PHH, CCK8, compound refreshed two times with 72-hour interval. On the procedure:
(§1) Detailed procedures regarding primary human hepatocyte (PHH) HBV natural infection assay are described as below. One tube of frozen PHH (10 million cells) is thawed in 37° C. water bath and then transferred to 20 mL of PHH thawing medium (Sigma, InVitroGRO HT Medium, Cat. S03319) with gently mixing. The cells were then centrifuged at […] for 5 min, the supernatant was discarded and the tube was refilled with 25 mL of PHH plating medium (Sigma, InVitroGRO CP Medium, Cat. S03317). The tube was shaken very gently to re-suspend all cells, and then 50 µl of cells were transferred to each well 384-well collagen I coated plate with appropriate liquid handling equipment, e.g. Integra VIAFLO384 or Agilent Bravo. The cells were then cultured for 24 hours in a cell incubator. For HBV infection, after PHH attachment on the culture plate, the plating medium was removed and replenished with PHH culture medium containing HBV virus. The PHH culture medium was prepared with Dulbecco’s Modified Eagle Medium (DMEM)/F12 (1: 1 in volume ratio) containing 10% fetal bovine serum (Gibco, Cat. 10099141), 5 ng/mL human epidermal growth factor (Gibco, Cat.PHG0311L), 20 ng/mL dexamethasone (Sigma, Cat.D4902-100mg), 250 ng/mL human recombinant insulin (Gibco, Cat.41400045) and 100 U/mL penicillin. HBV virus at 200 genome equivalent (GE) per cell with 4% PEG8000 (Sigma, Cat.P1458) containing culture medium were added to the PHH culture medium for infection. The cells were then cultured for 24 hours in cell incubator. Then the cell culture supernatant was removed. The HBV-infected PHH were cultured with sandwich culture method with PHH culture medium containing 1% DMSO and 0.25 mg/mL matrix gel for 72 hours. The supernatant was then refreshed with PHH culture medium containing different concentrations of testing compounds for two times with 72-hour interval. At the end of treatment, the supernatant was collected for viral markers measurements, including HBsAg, HBeAg, HBV DNA and cytotoxicity. HBsAg and HBeAg were detected using alphalisa method using their specific antibodies. For HBV DNA detection, HBV DNA Quantitative Fluorescence Diagnostic Kit (Sansure Biotech Inc.) was used following the manufacture’s protocol. Cytotoxicity was determined using Cell Counting Kit-8 (CCK8, Dojindo Molecular Technologies, Inc.).

The test system of the next series is HBeAg. In words: PHH HBV natural infection assay, HBeAg (alphalisa). Here is the method:
as §1
(§2) The compounds of the present invention were tested for their capacity to inhibit HBsAg and HBeAg as described herein.

The test system of another series is HBsAg. The series is described as follows: PHH HBV natural infection assay, HBsAg (alphalisa). On the procedure: as §1, §2
For orientation: In Alpha technology, singlet oxygen from a donor bead excites a nearby acceptor bead.

Where [2] appears, read: read-out: HBeAg IC50, HBV-infected PHH, culture supernatant, compound refreshed two times with 72-hour interval, alphalisa.
Where [3] appears, read: read-out: HBsAg IC50, HBV-infected PHH, culture supernatant, compound refreshed two times with 72-hour interval, alphalisa.
The mark [4] stands for this setting: Hepatitis B virus, 72 h, read-out: HBeAg IC50, HBV-infected PHH, culture supernatant, compound refreshed two times with 72-hour interval, alphalisa.
Setting [5] is: Hepatitis B virus, 72 h, read-out: HBsAg IC50, HBV-infected PHH, culture supernatant, compound refreshed two times with 72-hour interval, alphalisa.

Like-named read-outs stand apart in the source and are kept apart here. Bounds are passed on as bounds.

For `[H][C@]1(NC(=O)c2cc(C(N)=O)ncn2)C[C@]2(C1)C[C@]([H])(c1nc3cc(Cl)ccc3s1)C2` (single isomer, unassigned) [Example 56-b, (Ra)-N6-[6-(5-chloro-1,3-benzothiazol-2-yl)spiro[3.3]heptan-2-yl]pyrimidine-4,6-dicarboxamide], the CC50 (in general, the concentration at which the toxic effect on the cells reaches its halfway point) at 144 h in series [1] was above 10 µM. In addition, the IC50 (as a rule, the midpoint of a concentration-inhibition curve) worked out at 2270 nM in the series on HBeAg (setting [2]) and 3.3 µM in the series with HBsAg (setting [3]).

Consider `O=C(NC1CC2(C1)CC(c1nc3cc(Cl)ccc3s1)C2)c1ccnc(NC2CC2)c1` (stereo not drawn) [Example 45, N-[6-(5-chloro-1,3-benzothiazol-2-yl)spiro[3.3]heptan-2-yl]-2-(cyclopropylamino)pyridine-4-carboxamide], for which the 50% cytotoxic concentration (CC50) at 144 h in series [1] was above 10 µM. Further, the IC50 in the series with HBeAg (setting [4]) was 5180 nM; in the series with HBsAg (setting [5]) it was 6.08 µM.

Turning to `CC(C)Oc1cc(C(=O)NC2CC3(C2)CC(c2nc4cc(Cl)ccc4s2)C3)ccn1` (stereo not drawn) [Example 43, N-[6-(5-chloro-1,3-benzothiazol-2-yl)spiro[3.3]heptan-2-yl]-2-isopropoxy-pyridine-4-carboxamide], in series [1], the CC50 at 144 h was above 10 µM. Besides, the half-maximal inhibitory concentration (IC50) with HBeAg (setting [4]) came to 2860 nM; in the series with HBsAg (setting [5]), 3.23 µM.

`[H][C@]1(NC(=O)c2ccnc(C(N)=O)c2)C[C@]2(C1)C[C@]([H])(c1nc3cc(Cl)ccc3s1)C2` (single isomer, unassigned) [Example 53-b, (Ra)-N4-[6-(5-chloro-1,3-benzothiazol-2-yl)spiro[3.3]heptan-2-yl]pyridine-2,4-dicarboxamide] came in with a half-maximal cytotoxic concentration (CC50) at 144 h in series [1] above 10 µM. Moreover, the values for the IC50 in the series with HBeAg (setting [2]) and in the series with HBsAg (setting [3]) were 5250 nM and 5.96 µM, respectively.

In turn, `NC(=O)c1cc(C(=O)NC2CC3(C2)CC(c2nc4cc(Cl)ccc4s2)C3)ccn1` (stereo not drawn) [Example 11, N4-[6-(5-chloro-1,3-benzothiazol-2-yl)spiro[3.3]heptan-2-yl]pyridine-2,4-dicarboxamide] registered a cytotoxic concentration (CC50) at 144 h in series [1] above 50 µM. Further, the values for the half-maximal inhibitory concentration (IC50) with HBeAg (setting [4]) and with HBsAg (setting [5]) were 6810 nM and 4.06 µM, respectively.

On to `O=C(CC1CS(=O)(=O)C1)NC1CC2(C1)CC(c1nc3cc(Cl)ccc3s1)C2` (stereo not drawn) [Example 28, N-[6-(5-chloro-1,3-benzothiazol-2-yl)spiro[3.3]heptan-2-yl]-2-(1,1-dioxothietan-3-yl)acetamide], for which the CC50 at 144 h in series [1] is above 10 µM. Further, the half-inhibitory concentration (IC50) stood at 1660 nM in the series on HBeAg (setting [4]) and 3.28 µM with HBsAg (setting [5]).

`[H][C@]1(NC(=O)c2cc(C(N)=O)ncn2)C[C@@]2(C1)C[C@]([H])(c1nc3cc(Cl)ccc3s1)C2` (single isomer, unassigned) [Example 56-a, (Sa)-N6-[6-(5-chloro-1,3-benzothiazol-2-yl)spiro[3.3]heptan-2-yl]pyrimidine-4,6-dicarboxamide]: the 50% cytotoxic concentration (CC50) at 144 h in series [1] was above 10 µM. The IC50 in the series on HBeAg (setting [4]) came to 2470 nM; in the series with HBsAg (setting [5]), 3.29 µM.

On to `NS(=O)(=O)c1cccc(C(=O)NC2CC3(C2)CC(c2nc4cc(Cl)ccc4s2)C3)c1` (stereo not drawn) [Example 2, N-[6-(5-chloro-1,3-benzothiazol-2-yl)spiro[3.3]heptan-2-yl]-3-sulfamoyl-benzamide], for which the 50% cytotoxic concentration (CC50) at 144 h in series [1] is above 10 µM. The IC50 worked out at 3330 nM with HBeAg (setting [4]) and 3.71 µM in the series on HBsAg (setting [5]).

In turn, `O=C(NC1CC2(C1)CC(c1nc3cc(Cl)ccc3s1)C2)c1ccc(S(=O)(=O)NC2CCC2)o1` (stereo not drawn) [Example 22, N-[6-(5-chloro-1,3-benzothiazol-2-yl)spiro[3.3]heptan-2-yl]-5-(cyclobutylsulfamoyl)furan-2-carboxamide] returned a CC50 at 144 h in series [1] of 21.9 µM. The results for the IC50 in the series on HBeAg (setting [4]) and in the series on HBsAg (setting [5]) were 1000 nM and 1.39 µM, respectively.

`O=C(NC1CC2(C1)CC(c1nc3cc(Cl)ccc3s1)C2)C1CS(=O)(=O)C1` (stereo not drawn) [Example 25, N-[6-(5-chloro-1,3-benzothiazol-2-yl)spiro[3.3]heptan-2-yl]-1,1-dioxo-thietane-3-carboxamide]: in series [1], the half-maximal cytotoxic concentration (CC50) at 144 h is above 10 µM. Moreover, the concentration for half-maximal inhibition (IC50) in the series with HBeAg (setting [4]) was 2070 nM; in the series on HBsAg (setting [5]), 2.59 µM.

Compound `N#Cc1cc(C(=O)NC2CC3(C2)CC(c2nc4cc(Cl)ccc4s2)C3)ccn1` (stereo not drawn) [Example 5, N-[6-(5-chloro-1,3-benzothiazol-2-yl)spiro[3.3]heptan-2-yl]-2-cyano-pyridine-4-carboxamide] displayed a CC50 at 144 h in series [1] above 10 µM. Moreover, the IC50 with HBeAg (setting [4]) was determined as 2920 nM; in the series on HBsAg (setting [5]), 3.47 µM.

The compound `[H][C@]1(NC(=O)c2ccnc(C(N)=O)c2)C[C@@]2(C1)C[C@]([H])(c1nc3cc(Cl)ccc3s1)C2` (single isomer, unassigned) [Example 53-a, (Sa)-N4-[6-(5-chloro-1,3-benzothiazol-2-yl)spiro[3.3]heptan-2-yl]pyridine-2,4-dicarboxamide] showed a 50% cytotoxic concentration (CC50) at 144 h in series [1] of 36.8 µM. Also, the IC50 is 240 nM in the series with HBeAg (setting [2]) and 0.29 µM in the series on HBsAg (setting [3]).

Regarding `CC(C)N(C)c1cc(C(=O)NC2CC3(C2)CC(c2nc4cc(Cl)ccc4s2)C3)ccn1` (stereo not drawn) [Example 49, N-[6-(5-chloro-1,3-benzothiazol-2-yl)spiro[3.3]heptan-2-yl]-2-[isopropyl(methyl)amino]pyridine-4-carboxamide], the half-maximal cytotoxic concentration (CC50) at 144 h in series [1] is above 10 µM. Besides, the IC50 in the series with HBeAg (setting [4]) turned out to be 2380 nM; with HBsAg (setting [5]), 3.14 µM.

On to `O=C(NC1CC2(C1)CC(c1nc3ccc(Cl)cc3s1)C2)C1CCS(=O)(=O)C1` (stereo not drawn) [Example 27, N-[6-(6-chloro-1,3-benzothiazol-2-yl)spiro[3.3]heptan-2-yl]-1,1-dioxo-thiolane-3-carboxamide], for which the 50% cytotoxic concentration (CC50) at 144 h in series [1] was above 100 µM. In addition, the IC50 was determined as 560 nM with HBeAg (setting [4]) and 1.15 µM in the series on HBsAg (setting [5]).

`Nc1nc(C(=O)NC2CC3(C2)CC(c2nc4cc(Cl)ccc4s2)C3)cs1` (stereo not drawn) [Example 19, 2-amino-N-[6-(5-chloro-1,3-benzothiazol-2-yl)spiro[3.3]heptan-2-yl]thiazole-4-carboxamide]: in series [1], the CC50 at 144 h was determined as 31.5 µM. Also, the half-inhibitory concentration (IC50) stood at 6830 nM in the series on HBeAg (setting [4]) and 7.55 µM with HBsAg (setting [5]).

For the compound `O=C(NC1CC2(C1)CC(c1nc3cc(Cl)ccc3s1)C2)c1ccnc(N2CCCC2)c1` (stereo not drawn) [Example 50, N-[6-(5-chloro-1,3-benzothiazol-2-yl)spiro[3.3]heptan-2-yl]-2-pyrrolidin-1-yl-pyridine-4-carboxamide], the half-maximal cytotoxic concentration (CC50) at 144 h in series [1] is above 10 µM. The IC50 with HBeAg (setting [4]) worked out at 9630 nM; in the series with HBsAg (setting [5]), 9.95 µM.

For `CS(=N)(=O)c1cc(C(=O)NC2CC3(C2)CC(c2nc4cc(Cl)ccc4s2)C3)ccn1` (stereo not drawn) [Example 40, N-[6-(5-chloro-1,3-benzothiazol-2-yl)spiro[3.3]heptan-2-yl]-2-(methylsulfonimidoyl)pyridine-4-carboxamide], the CC50 at 144 h in series [1] was above 10 µM. Besides, the IC50 is 2410 nM in the series on HBeAg (setting [4]) and 2.53 µM in the series with HBsAg (setting [5]).

`O=C(NC1CC2(C1)CC(c1nc3ccc(Cl)cc3s1)C2)c1ccc(C(F)(F)F)o1` (stereo not drawn) [Example 15, N-[6-(6-chloro-1,3-benzothiazol-2-yl)spiro[3.3]heptan-2-yl]-5-(trifluoromethyl)furan-2-carboxamide]: the CC50 at 144 h in series [1] was above 100 µM. For the same compound, the IC50 in the series on HBeAg (setting [4]) was 2070 nM; in the series on HBsAg (setting [5]) it was 2.96 µM.

In turn, `CC(C)(c1ccc(C(=O)NC2CC3(C2)CC(c2nc4cc(Cl)ccc4s2)C3)o1)S(C)(=O)=O` (stereo not drawn) [Example 17, N-[6-(5-chloro-1,3-benzothiazol-2-yl)spiro[3.3]heptan-2-yl]-5-(1-methyl-1-methylsulfonyl-ethyl)furan-2-carboxamide] displayed a CC50 at 144 h in series [1] of 35.7 µM. Besides, the IC50 in the series with HBeAg (setting [4]) is 1600 nM; in the series with HBsAg (setting [5]), 2.11 µM.

In turn, `NC(=O)c1cc(C(=O)NC2CC3(C2)CC(c2nc4cc5c(cc4s2)OCO5)C3)ccn1` (stereo not drawn) [Example 12, N4-[6-([1,3]dioxolo[4,5-f][1,3]benzothiazol-6-yl)spiro[3.3]heptan-2-yl]pyridine-2,4-dicarboxamide] yielded a cytotoxic concentration (CC50) at 144 h in series [1] of 23.3 µM. Moreover, the results for the half-inhibitory concentration (IC50) with HBeAg (setting [4]) and with HBsAg (setting [5]) were 6530 nM and 6.58 µM, respectively.

`CCN1CC(C(=O)NC2CC3(C2)CC(c2nc4cc(Cl)ccc4s2)C3)CC1=O` (stereo not drawn) [Example 31, N-[6-(5-chloro-1,3-benzothiazol-2-yl)spiro[3.3]heptan-2-yl]-1-ethyl-5-oxo-pyrrolidine-3-carboxamide] returned a CC50 at 144 h in series [1] above 10 µM. For the same compound, the figures for the IC50 in the series with HBeAg (setting [4]) and in the series with HBsAg (setting [5]) were 8290 nM and 9.58 µM, respectively.

The record behind these values is patent US20230331715A1, “SPIRO[3.3]HEPTANE DERIVATIVES FOR THE TREATMENT AND PROPHYLAXIS OF HEPATITIS B VIRUS INFECTION” (priority 2020, published 2023).
